How the values were obtained:
[1] = Plasma free selvigaltin pharmacokinetics, acute 5-day treatment; assay type: in vivo, rabbit
From the text: The dose employed was established based on pilot pharmacokinetics studies in rabbits performed historically in naïve rabbits (data not shown). This first part of the study allowed the determination of the therapeutic benefits of selvigaltin following acute treatment, thus validating the model for further investigation of this mechanism in a chronic treatment protocol.
(§1) After 1 week of standard diet, animals (n = 12) were randomly assigned to the following groups (Table 1A): • Control rabbits continued to receive a regular diet (RD) for 12 weeks and were treated for 5 days (days 1–5, p.o.), during the last week before culling, with either vehicle; RD+1W Veh group] or GB1211 (30 mg/kg; RD + 1W 30 mg group); • Rabbits received a high fat diet (HFD) for 12 weeks (RD implemented with 0.5% cholesterol and 2.5% vegetable fat) and were treated for 5 days (days 1–5, p.o.), during the last week before culling, with either vehicle (HFD + 1W Veh group) or GB1211 (30 mg/kg; HFD + 1W 30 mg group).
Liver homogenates were prepared by homogenisation of 200 mg liver tissue/ml water using a Fisherbrand™ Homogenizer 150 (Thermo Fisher Scientific, Waltham, MA). Plasma or liver homogenate were mixed 1 part matrix with 3 parts acetonitrile prior to centrifugation at 10,000 g for 10 min at 18°C with supernatant diluted x4 with water prior to LC-MS/MS analysis.

[2] = system: high fat diet (HFD) rabbit model of metabolic-associated steatohepatitis (MASH); experiment: HFD rabbit study, acute 5-day treatment: liver histomorphology (Giemsa, Masson's trichrome, PSR, SHG); assay type: in vivo, New Zealand White rabbits; conditions: 30 mg/kg p.o. 5 days, week 12; for Ballooning score 0 (no ballooning), share of animals / Ballooning score 1 (few ballooned cells), share of animals / Ballooning score 2 (prominent ballooning), share of animals / Fibrosis (Ishak Score) 0, share of animals / Fibrosis (Ishak Score) 1, share of animals / Fibrosis (Ishak Score) 2, share of animals / Fibrosis (Ishak Score) 3, share of animals / Fibrosis (Ishak Score) 4, share of animals / Fibrosis (Ishak Score) 5, share of animals / Inflammation score 0 (no foci), share of animals / Inflammation score 1 (<2 foci), share of animals / Inflammation score 2 (2–4 foci), share of animals / Inflammation score 3 (> 4 foci), share of animals: n = 3
Protocol: as §1
Liver specimens were fixed in 10% buffered formalin (Sigma-Aldrich Corp., St. Louis, MO), paraffin embedded and sectioned at a thickness of 5 μm with a microtome. The slides were stained with hematoxylin and eosin (H&E; both Bio-Optica, Milan, Italy), following standard protocols for histological analysis, to evaluate the general morphology and tissue structure, and then analyzed to evaluate inflammation and […] using Giemsa and Masson’s trichrome staining, respectively. Briefly, deparaffinized and rehydrated sections were incubated with Giemsa (Bio-Optica) in distilled water at ratio 1:1 or with Masson’s trichrome (Bio-Optica), following the manufacturer’s instructions, as previously described ([Vignozzi et al., 2014]). To evaluate lipid accumulation, liver specimens were also cryosectioned at a thickness of 8 μm, fixed with 4% paraformaldehyde, treated for 2–5 min with isopropanol and stained with Oil Red O (Bio-Optica) for 20 min, following the manufacturer’s instructions.
In liver, collagen content evaluation for fibrosis grade and quantification was conducted by staining using Picrosirius Red Stain kit (Bio-Optica), as per manufacturer’s instructions. Briefly, deparaffinized and rehydrated sections were incubated with the staining solution for 50 min, rinsed with the appropriate reagents and with distilled water, dehydrated through ascending alcohols and xylene, and mounted, as previously described ([Comeglio et al., 2017]).
Blinded images of unstained sections of liver were acquired using a Genesis®200 imaging system (HistoIndex, Singapore) and analyzed by Second Harmonic Generation (SHG) microscopy to visualize collagen and Two-Photon Excitation Fluorescence (TPEF) microscopy to visualize the other tissue structures as previously described ([Liu et al., 2017]).
Briefly, deparaffinized tissue sections were imaged by SHG at 780 nm (specific to collagen-1 and -3) simultaneously with TPEF at 780 nm (collected at 550 nm to visualize tissue structure). Both were captured at a ×20 objective and […] resolution. A specialized artificial intelligence analysis program developed by, and proprietary to, HistoIndex were employed to identify and quantify collagen fibres across liver regions with outputs highlighted below and as previously described ([Liu et al., 2017]): • SHG Overall Area (Percentage of total collagen in overall region). • Strings Overall N. (Number of collagen strings in overall region). • Strings Overall Length (Total length of all collagen strings in overall region). • Strings PT Area (Total area of all collagen strings in portal tract region). • Strings PT Length (Total length of all collagen strings in portal tract region). • Strings PS Area (Total area of all collagen strings in peri-sinusoidal region). • Strings PS Length (Total length of all collagen strings in peri-sinusoidal region).
The grading system for inflammation enumerated the number of foci in each 200x field assessed, according to [Kleiner et al. (2005)]: 0 = no foci; 1 = <2 foci; 2 = 2–4 foci; 3 => 4 foci. As shown in the contingency table (Table 3), statistically higher scoring grades were recorded in the HFD+1W Veh group, compared to RD+1W Veh and HFD + 1W 30 mg (both p < 0.05). […]

[3] = HFD rabbits, p < 0.001 vs. HFD + 1W Veh

OC[C@H]1O[C@H](Sc2cncc(Br)c2)[C@H](O)[C@@H](n2cc(-c3cc(F)c(F)c(F)c3)nn2)[C@H]1O [selvigaltin]
steady state systemic plasma drug concentration vs rabbit galectin-3 binding KD ([1]; 30 mg/kg/day p.o., acute treatment): ~40 fold
plasma exposure in HFD+1W 30 mg vs RD+1W 30 mg ([1]; day 4 of treatment, 30 mg/kg p.o.): marginal increase in exposure
Ballooning score 0 (no ballooning), share of animals ([2]; HFD rabbits): 0.0%
Ballooning score 1 (few ballooned cells), share of animals ([2]; HFD rabbits): 66.7%
Ballooning score 2 (prominent ballooning), share of animals ([2]; HFD rabbits): 33.3%
Fibrosis (Ishak Score) 0, share of animals ([2]; HFD rabbits): 0.0%
Fibrosis (Ishak Score) 1, share of animals ([2]; HFD rabbits): 0.0%
Fibrosis (Ishak Score) 2, share of animals ([2]; HFD rabbits): 33.3%
Fibrosis (Ishak Score) 3, share of animals ([2]; HFD rabbits): 66.7%
Fibrosis (Ishak Score) 4, share of animals ([2]; HFD rabbits): 0.0%
Fibrosis (Ishak Score) 5, share of animals ([2]; HFD rabbits): 0.0%
Inflammation score 0 (no foci), share of animals ([2]; HFD rabbits): 100.0%
Inflammation score 1 (<2 foci), share of animals ([2]; HFD rabbits): 0.0%
Inflammation score 2 (2–4 foci), share of animals ([2]; HFD rabbits): 0.0%
Inflammation score 3 (> 4 foci), share of animals ([2]; HFD rabbits): 0.0%
Picrosirius Red percentage of fibrosis area [2, 3]: significantly reduced fibrosis to RD levels
SHG percentage of fibrosis area [2, 3]: normalized
Ballooning score 0 (no ballooning), share of animals ([2]; RD rabbits): 100.0%
Ballooning score 1 (few ballooned cells), share of animals ([2]; RD rabbits): 0.0%
Ballooning score 2 (prominent ballooning), share of animals ([2]; RD rabbits): 0.0%
Fibrosis (Ishak Score) 0, share of animals ([2]; RD rabbits): 0.0%
Fibrosis (Ishak Score) 1, share of animals ([2]; RD rabbits): 0.0%
Fibrosis (Ishak Score) 2, share of animals ([2]; RD rabbits): 33.3%
Fibrosis (Ishak Score) 3, share of animals ([2]; RD rabbits): 66.7%
Fibrosis (Ishak Score) 4, share of animals ([2]; RD rabbits): 0.0%
Fibrosis (Ishak Score) 5, share of animals ([2]; RD rabbits): 0.0%
Inflammation score 0 (no foci), share of animals ([2]; RD rabbits): 66.7%
Inflammation score 1 (<2 foci), share of animals ([2]; RD rabbits): 33.3%
Inflammation score 2 (2–4 foci), share of animals ([2]; RD rabbits): 0.0%
Inflammation score 3 (> 4 foci), share of animals ([2]; RD rabbits): 0.0%
